Structures are written as SMILES. Values after ≈ are worked out from the molar mass of the structure shown.

The text below walks through data of patent publication US8030489B2, “Ornithine derivative” (Astellas Pharma Inc., priority 2007, dated 2011).

One data set deals with T1, rat EP4 receptor (Rattus norvegicus, UniProt P43114).
T1 construct: expressed in transfected cells; host or cells: HEK293
Description: Evaluation test on rat EP4 receptor affinity ([3H]PGE2 binding assay). The following applies: rat EP4 expressed in HEK293 membrane fraction, [3H]PGE2 0.3 nM. The protocol: Test Example 1: Evaluation Test on Rat EP4 Receptor Affinity
Cell Culture and Transfection
Using a 10 cm collagen-coated dish (Asahi Glass), HEK293 cells were cultured in a D-MEM culture medium, washed with a phosphate buffer saline (PBS), the culture medium was removed off at a confluence (90 to 100% density state), and then the cells were detached with N,N,N′,N′-tetrakis(carboxymethyl)ethylenediamine (EDTA). The cells were counted and seeded on a 15 cm collagen-coated dish to a confluence of 70%. The next day, to an Opti-MEM culture medium at 1.2 mL/dish was added Lipofectamine 2000 (Invitrogen) at 60 μL/dish, followed by being left to stand at room temperature for 5 minutes. A plasmid in which a rat EP4 (alignment number 1) had been inserted into a TA cloning site of pcDNA3.1-V5-His-topo was added thereto to 15 μg/dish. After leaving it to stand at room temperature for 30 minutes, the resultant was added to the dish, and cultured for 20 to 24 hours. The cell culture was carried out in a CO2 incubator (37° C., 5% CO2).
Preparation of Membrane Fraction
The culture medium was removed by suction, 10 mL of cooled PBS was added thereto per 15 cm dish, and the cells were scraped using a cell scraper (Sumitomo Bakelite). They were washed with cooled PBS (1,200 rpm, 4° C., 5 min), and then suspended in 6 mL of cooled 20 mM Tris-HCl (pH 7.4; Nakalai Tesque Inc., including 5 mM EDTA (Nakalai Tesque Inc.) per dish. Then, it was homogenized using a Polytron and the homogenate was centrifuged (26,000 rpm, 20 min, 4° C.). The obtained precipitate was resuspended in cooled 20 mM Tris-HCl, and homogenized again using a Polytron, and the homogenate was centrifuged (26,000 rpm, 20 min, 4° C.). The obtained precipitate was resuspended in 50 mM HEPES (pH 7.5; Dojindo Laboratories) to 1 mL per dish, homogenized again using a Polytron, and freeze-stored at −80° C. as a membrane fraction. At this time, a part thereof was used for the measurement of the protein concentration. Measurement of the protein concentration was carried out using a Bio-Rad Protein assay kit (Bio-Rad Laboratories) in accordance with the appended standard Protocol in duplicate.
[^3H] PGE2 50 μL (final concentration 0.3 nM; Perkin Elmer), 100 μL (20 μg/well) of a membrane fraction prepared from the rat EP4 expression cell, and 50 μL of a test compound were mixed in a 96-well microplate (Sumitomo Bakelite), incubated at room temperature for 1 hour, then filtered by suction on a UniFilter-96 GF/B (Perkin Elmer) using a FilterMate Harvester (Perkin Elmer), and washed three times with 300 μL/well of a cooled assay buffer. Dilution of [^3H]PGE2 and the membrane fraction was carried out using an assay buffer (50 mM HEPES, 10 mM MgCl2), and dilution of the test compound and the unlabeled PGE2 was carried out using DMSO and an assay buffer. Further, in the case of the addition of a human serum albumin (HSA), dilution was carried out using an assay buffer containing 4% HSA (final concentration 1%; Sigma). The UniFilter-96 GF/B was treated by preliminarily washing twice with 200 μL/well of a cooled assay buffer. The UniFilter-96 GF/B after filtration was dried in a dryer overnight, 50 μL/well of MicroScint20 (Perkin Elmer) was added thereto, and then the radioactivity was measured using a TopCount (Perkin Elmer). For measurement of the non-specific binding, an unlabeled PGE2 (final concentration 1 μM; Cayman) was added. All of the measurements were carried out in duplicate, and the specific binding amount was determined by subtracting the non-specific binding amount from the total binding amount.
According to Test Example 1 as above, the rat EP4 receptor affinity (Ki) of the compound of the formula (I) was measured.

Data set [1] concerns urinary albumin excretion (UAE) in STZ diabetic rats. Description: Effect on urine albumin in streptozotocin-induced (STZ) diabetic rats. Type of data set: in vivo, rat. Conditions: male Wistar rats, STZ 50 mg/kg i.v.; 30 mg/kg oral, fourth week of administration; vehicle group 3.1±0.7 mg/day. The protocol:
Test Example 2: Test to Study the Effect on Urine Albumin in Streptozotocin-induced (STZ) Diabetic Rats.
Eight-week old male Wistar (Crj) rats were divided into groups with unbiased urinary albumin excretion (UAE), and STZ (50 mg/kg) was intravenously administered thereto. From the next day of administration of STZ, the drug was continuously orally administered, and urine was periodically collected in a metabolism cage for 24 hours to measure the UAE.

The next data set can be described thus: Solubility test. It counts as physicochemical. The following applies: pH 1.2, simulated gastric fluid, kinetic from dmso stock; first liquid for disintegration test of Japanese Pharmacopoeia, 25° C., shaking 20 hours. The protocol:
Test Example 3: Solubility Test
To 13 μL of a 10 mM DMSO solution of a test material that had been prepared in advance was added exactly 1 mL of a first liquid for a disintegration test of Japanese Pharmacopoeia, followed by shaking at 25° C. for 20 hours, thereby giving a sample stock solution. Next, using a filter impregnated with 200 μL of the sample stock solution, 200 μL of a fresh sample stock solution was added for filtration to obtain a liquid, which was taken as a sample solution. Apart from this, to 10 μL of the 10 mM DMSO solution of the test material was added accurately 1 mL of methanol, followed by stirring, thereby giving a standard solution. 10 μL of the sample solution and the standard solution were tested by liquid chromatography, respectively, and the ratio of the peak area of the sample solution to the peak area of the standard solution was determined, thereby calculating the solubility. For example, the solubilities of the compounds of Examples 23, 25, 31, 32, 50, 55, 57, 60, 93, and 284 were 51 μg/mL, 26 μg/mL, ≧53 μg/mL, 46 μg/mL, 47 μg/mL, ≧52 μg/mL, ≧50 μg/mL, 40 μg/mL, ≧53 μg/mL, and <1 μg/mL, respectively.

T1 sequence (P43114 whole entry): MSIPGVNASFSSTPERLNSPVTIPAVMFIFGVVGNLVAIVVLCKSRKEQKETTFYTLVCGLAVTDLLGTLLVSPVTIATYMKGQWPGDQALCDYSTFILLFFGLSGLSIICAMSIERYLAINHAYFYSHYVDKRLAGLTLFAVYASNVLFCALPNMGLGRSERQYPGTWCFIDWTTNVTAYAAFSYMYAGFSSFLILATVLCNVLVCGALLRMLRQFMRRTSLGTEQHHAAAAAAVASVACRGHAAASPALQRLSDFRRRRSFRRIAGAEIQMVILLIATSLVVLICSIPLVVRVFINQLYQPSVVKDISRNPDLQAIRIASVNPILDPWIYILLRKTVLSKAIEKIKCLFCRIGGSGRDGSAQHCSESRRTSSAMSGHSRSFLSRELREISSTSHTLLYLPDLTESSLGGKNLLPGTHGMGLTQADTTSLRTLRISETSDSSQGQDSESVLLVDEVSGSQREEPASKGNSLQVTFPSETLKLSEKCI

What is called Ki is the equilibrium dissociation constant of an inhibitor or competing ligand from its target. A high value points to a looser hold on the target. Turning to `Cn1c(C(=O)N[C@@H](CCCNC(=O)OCc2ccccc2)C(=O)N[C@H]2CCC[C@H]2C(=O)O)cc2ccccc21` [Example 2, (1R,2S)-2-({N^5-[(benzyloxy)carbonyl]-N^2-[(1-methyl-1H-indol-2-yl)carbonyl]-L-ornithyl}amino)cyclopentanecarboxylic acid], at rat EP4 receptor, the inhibitory constant (Ki) amounted to 0.92 nM. This lies in the sub-nanomolar range.

`Cn1c(C(=O)N[C@@H](CCCNC(=O)OCc2ccccc2)C(=O)N[C@H]2CCCC[C@H]2C(=O)O)cc2ccccc21` [Example 22] registered a Ki on rat EP4 receptor of 0.53 nM.

The solubility is the dissolved amount per volume that the medium holds. High values mean a readily soluble substance, low ones a poorly soluble substance. As for `O=C(NCCC[C@H](NC(=O)c1ccc2ccccc2n1)C(=O)N[C@H]1CCC[C@H]1C(=O)O)OCc1ccccc1` [Example 23], the “urinary albumin excretion (UAE)” value in data set [1] is 0.9 ± 0.1 mg/day. This compound also gave a solubility at 20 h in the data set “Solubility test” of 51 µg/mL (≈ 95.8 µM). This compound displayed a Ki at rat EP4 receptor of 0.43 nM.

For `Cn1ccc2ccc(C(=O)N[C@@H](CCCNC(=O)OCc3ccccc3)C(=O)N[C@H]3CCC[C@H]3C(=O)O)cc21` [Example 25], in “Solubility test”, the concentration in solution (solubility at 20 h) came to 26 µg/mL (≈ 48.6 µM). This compound also registered a Ki at rat EP4 receptor of 0.66 nM.

For the compound `COc1cccc(C(=O)N[C@@H](CCCNC(=O)OCc2ccccc2)C(=O)N[C@H]2CCC[C@H]2C(=O)O)c1` [Example 26], at rat EP4 receptor, the inhibitory constant (Ki) stood at 1.6 nM.

`CN(C)c1cccc(C(=O)N[C@@H](CCCNC(=O)OCc2ccccc2)C(=O)N[C@H]2CCC[C@H]2C(=O)O)c1` [Example 31] showed a solubility at 20 h in “Solubility test” not below 53 µg/mL. Besides, the inhibition constant (Ki) at rat EP4 receptor is 1.1 nM.

Turning to `O=C(NCCC[C@H](NC(=O)c1cccc(Cl)c1)C(=O)N[C@H]1CCC[C@H]1C(=O)O)OCc1ccccc1` [Example 32], the concentration in solution in “Solubility test” (solubility at 20 h) came to 46 µg/mL (≈ 89.1 µM). This compound also yielded a Ki on rat EP4 receptor of 1.3 nM.

At rat EP4 receptor, `Cc1cc(C)n(C)c1C(=O)N[C@@H](CCCNC(=O)OCc1ccccc1)C(=O)N[C@H]1CCC[C@H]1C(=O)O` [Example 36] came in with an inhibition constant (Ki) of 9.8 nM. In other words, the single-digit nanomolar range.

In turn, `Cn1ccc2c(C(=O)N[C@@H](CCCNC(=O)OCc3ccccc3)C(=O)N[C@H]3CCC[C@H]3C(=O)O)cccc21` [Example 50] came in with a solubility at 20 h in “Solubility test” of 47 µg/mL (≈ 87.9 µM). For the same compound, the affinity at rat EP4 receptor, expressed as Ki, was 0.78 nM.

Consider `O=C(/C=C/c1ccccc1O)N[C@@H](CCCNC(=O)OCc1ccccc1)C(=O)N[C@H]1CCC[C@H]1C(=O)O` [Example 55], for which the solubility at 20 h in “Solubility test” is not below 52 µg/mL. The same compound gave an inhibition constant Ki at rat EP4 receptor of 0.92 nM.

For the compound `Cc1cc(C(=O)N[C@@H](CCCNC(=O)OCc2ccccc2)C(=O)N[C@H]2CCC[C@H]2C(=O)O)n(C)c1` [Example 57], the solubility at 20 h in “Solubility test” was not below 50 µg/mL. At rat EP4 receptor, this compound registered a Ki of 0.72 nM.

The compound `CC(=O)c1cn(C)c2cc(C(=O)N[C@@H](CCCNC(=O)OCc3ccccc3)C(=O)N[C@H]3CCC[C@H]3C(=O)O)ccc12` [Example 60] registered a solubility at 20 h in the data set “Solubility test” of 40 µg/mL (≈ 69.4 µM). On rat EP4 receptor, this compound returned a Ki of 1.1 nM.

The compound `O=C(NCCC[C@H](NC(=O)c1cccc(Cl)n1)C(=O)N[C@H]1CCC[C@H]1C(=O)O)OCc1ccccc1` [Example 76] registered an inhibitory constant (Ki) on rat EP4 receptor of 1.8 nM.

Compound `Cn1c(C(=O)N[C@@H](CCCNC(=O)OCc2ccccc2)C(=O)N[C@H]2CCC[C@H]2c2nnn[nH]2)cc2ccccc21` [Example 83] came in with an inhibitory constant (Ki) at rat EP4 receptor of 0.52 nM.

Turning to `Cn1ccc2cccc(C(=O)N[C@@H](CCCNC(=O)OCc3ccccc3)C(=O)N[C@H]3CCC[C@H]3C(=O)O)c21` [Example 93], the solubility at 20 h in “Solubility test” was not below 53 µg/mL. This compound came in with a Ki on rat EP4 receptor of 0.79 nM.

On to `Cn1c(C(=O)N[C@@H](CCCNC(=O)OCc2ccccc2)C(=O)N[C@H]2CCC[C@H]2c2n[nH]c(=S)o2)cc2ccccc21` [Example 119], for which, at rat EP4 receptor, affinity was put at a Ki of 2.1 nM. In other words, the single-digit nanomolar range.

For the compound `Cn1c([C@@H]2CCC[C@@H]2NC(=O)[C@H](CCCNC(=O)OCc2ccccc2)NC(=O)c2cc3ccccc3n2C)n[nH]c1=S` [Example 120], on rat EP4 receptor, the inhibition constant Ki worked out at 9.8 nM.

The compound `CC(C)COC(=O)NCCC[C@H](NC(=O)c1cc2ccccc2n1C)C(=O)N[C@H]1CCC[C@H]1C(=O)O` [Example 159] gave a Ki on rat EP4 receptor of 6 nM.

In the case of `Cn1c(C(=O)N[C@@H](CCCNC(=O)OCC2CCCCC2)C(=O)N[C@H]2CCC[C@H]2C(=O)O)cc2ccccc21` [Example 160], on rat EP4 receptor, the inhibitory constant (Ki) came to 0.43 nM.

Consider `COc1ccc2[nH]c(C(=O)N[C@@H](CCCNC(=O)OCc3ccccc3)C(=O)N[C@H]3CCC[C@H]3c3nnn[nH]3)cc2c1` [Example 164], for which the Ki on rat EP4 receptor came to 0.29 nM.

Regarding `COc1ccc2[nH]c(C(=O)N[C@@H](CCCNC(=O)OCc3ccccc3)C(=O)N[C@H]3CCC[C@H]3C(=O)O)cc2c1` [Example 165], the inhibition constant Ki at rat EP4 receptor came out at 0.26 nM.

In the case of `COc1ccc2c(c1)cc(C(=O)N[C@@H](CCCNC(=O)OCc1ccccc1)C(=O)N[C@H]1CCC[C@H]1c1nnn[nH]1)n2C` [Example 169], the affinity on rat EP4 receptor, expressed as Ki, was 0.29 nM.

On rat EP4 receptor, `Cn1c(C(=O)N[C@@H](CCCNC(=O)OCc2ccccc2)C(=O)N[C@H]2CCC[C@H]2C(=O)NS(=O)(=O)CCCO)cc2ccccc21` [Example 176] yielded a Ki of 4 nM.
